According to US7615567B2, “Compounds and methods for promoting smoking cessation” (priority 2000, dated 2009):
Read-outs that look alike come from different tables or passages of the source.

How the values were obtained:
[1] = biological target: α4β2 nAChRs (Rattus norvegicus, UniProt P09483+P12390); assay: biochemical; assay type: binding
[2] = Table 1, [3H]epibatidine binding, rat cerebral cortex
[3] = read-out: α4β2 [^3H]Epibatidine (Ki), Table 1, male rat cerebral cortex homogenate, 0.5-2 nM [3H]epibatidine, Ki from IC50 by Cheng-Prusoff

Chain of α4β2 nAChRs (P09483 31-630): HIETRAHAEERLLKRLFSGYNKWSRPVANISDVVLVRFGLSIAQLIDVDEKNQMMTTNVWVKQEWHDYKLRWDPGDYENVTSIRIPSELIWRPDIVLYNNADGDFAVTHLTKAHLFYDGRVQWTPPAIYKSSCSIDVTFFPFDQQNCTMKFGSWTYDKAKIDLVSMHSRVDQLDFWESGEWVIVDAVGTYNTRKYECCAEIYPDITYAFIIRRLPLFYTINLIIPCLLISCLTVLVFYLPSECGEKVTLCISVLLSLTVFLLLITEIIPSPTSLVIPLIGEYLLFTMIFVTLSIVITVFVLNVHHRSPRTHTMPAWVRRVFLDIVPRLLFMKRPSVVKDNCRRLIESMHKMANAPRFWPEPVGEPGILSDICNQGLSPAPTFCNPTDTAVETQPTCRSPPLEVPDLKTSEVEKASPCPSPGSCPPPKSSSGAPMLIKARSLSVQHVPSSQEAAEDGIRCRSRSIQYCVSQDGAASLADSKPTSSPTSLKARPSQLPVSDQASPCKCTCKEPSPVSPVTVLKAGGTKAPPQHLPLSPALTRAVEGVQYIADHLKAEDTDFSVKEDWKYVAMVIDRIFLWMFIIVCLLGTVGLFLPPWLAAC
Chain of α4β2 nAChRs (P12390 25-500): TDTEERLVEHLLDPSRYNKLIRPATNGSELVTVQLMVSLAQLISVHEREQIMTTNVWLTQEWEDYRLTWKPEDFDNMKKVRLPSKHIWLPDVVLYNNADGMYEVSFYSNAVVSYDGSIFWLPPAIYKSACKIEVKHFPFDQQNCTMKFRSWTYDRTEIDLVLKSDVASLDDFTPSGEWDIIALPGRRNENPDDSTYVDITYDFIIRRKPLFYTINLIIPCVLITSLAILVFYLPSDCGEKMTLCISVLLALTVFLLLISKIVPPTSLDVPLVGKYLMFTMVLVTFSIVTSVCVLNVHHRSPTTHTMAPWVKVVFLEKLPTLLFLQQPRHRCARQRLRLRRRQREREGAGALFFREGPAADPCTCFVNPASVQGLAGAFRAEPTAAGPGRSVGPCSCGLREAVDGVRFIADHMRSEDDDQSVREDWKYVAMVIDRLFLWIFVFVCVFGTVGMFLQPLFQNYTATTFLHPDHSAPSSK

| Compound | Hill Slope [1, 2] | Ki [1] [nM] | further results |
| --- | --- | --- | --- |
| Clc1ncc(C2CC3CCC2N3)cc1-c1ccccc1 (centres unmarked) [RTI-7527-2] | 0.81 ± 0.02 | – | Ki [1, 3]: 0.021 ± 0.005 nM |
| Ic1ncc(C2CC3CCC2N3)cc1-c1ccccc1 (centres unmarked) [RTI-7527-3] | 0.84 ± 0.02 | 0.019 ± 0.002 | – |
| Clc1ncc(C2CC3CCC2N3)cc1I (centres unmarked) [RTI-7527-4] | 0.83 ± 0.03 | 0.012 ± 0.0003 | – |
| Clc1cc(C2CC3CCC2N3)cnc1Cl (centres unmarked) [RTI-7527-5] | 0.87 ± 0.04 | 0.015 ± 0.001 | melting point: 75 to 80 °C |
| Nc1ncc(C2CC3CCC2N3)cc1I (stereo not drawn) [RTI-7527-24, 2-exo-[5′-(3′-Iodo-2′-aminopyridinyl)]-7-azabicyclo[2.2.1]-heptane] | – | – | Hill Slope ([1]; Table 1, [3H]epibatidine binding, rat cerebral cortex, listed as 34): 1.08 ± 0.03; Ki [1, 3]: 35.5 ± 5.4 nM |
| Brc1cc(C2CC3CCC2N3)cnc1I (centres unmarked) [RTI-7527-50] | 0.96 ± 0.05 | 0.027 ± 0.002 | – |
| Nc1ncc(C2CC3CCC2N3)cc1-c1ccccc1 (centres unmarked) [RTI-7527-51] | 0.93 ± 0.03 | 0.33 ± 0.05 | – |
| Clc1ncc(C2CC3CCC2N3)cc1Br (centres unmarked) [RTI-7527-53] | 0.95 ± 0.09 | – | Ki [1, 3]: 0.013 ± 0.001 nM |
| Nc1ncc(C2CC3CCC2N3)cc1I (centres unmarked) [RTI-7527-57] | – | 1.47 ± 0.12 | Hill Slope ([1]; Table 1, [3H]epibatidine binding, rat cerebral cortex, listed as 24): 1.07 ± 0.14 |
| CON=C1C2CCC1C(c1ccc(Cl)nc1)C2 (centres unmarked) [compound 2] | – | > 1000 | – |
| NC1C2CCC1C(c1ccc(Cl)nc1)C2 (centres unmarked) [compound 3] | 1.2 ± 0.04 | 8.2 ± 0.08 | – |
| Cc1nc(Cl)ccc1C1CC2CCC1N2 (centres unmarked) [compound 5] | 1.1 ± 0.03 | 256 ± 74 | – |
| CN1C2CCC1C(c1ccc(Cl)nc1)C2 (centres unmarked) [compound 11] | – | 22.8 ± 0.001 | Hill Slope ([1]; second table (structures A, B, C), [3H]epibatidine binding, rat cerebral cortex): 1.07 ± 0.05; melting point: 100 to 102 °C |
| Fc1ccc(C2CC3CCC2N3)cn1 (centres unmarked) [compound 13] | 0.9 ± 0.02 | – | Ki [1, 3]: 0.027 ± 0.001 nM |
| CN(C)c1ccc(C2CC3CCC2N3)cn1 (centres unmarked) [compound 19] | 1.0 ± 0.01 | – | Ki [1, 3]: 26.4 ± 1.4 nM |
| Oc1ncc(C2CC3CCC2N3)cc1-c1ccccc1 (centres unmarked) [compound 29] | – | 51.9 ± 2 | Hill Slope [1]: 1.04 ± 0.07 |
| Clc1cncc(C2CC3CCC2N3)c1 (centres unmarked) [compound 35] | 0.9 ± 0.03 | 0.12 ± 0.006 | – |
| Fc1cncc(C2CC3CCC2N3)c1 (centres unmarked) [compound 36] | 0.9 ± 0.01 | – | Ki [1, 3]: 0.037 ± 0.001 nM |
| Fc1ncc(C2CC3CCC2N3)cc1Cl (centres unmarked) [compound 37] | 0.8 ± 0.004 | 0.02 ± 0.0003 | – |
| Fc1cc(C2CC3CCC2N3)cnc1F (centres unmarked) [compound 38] | 1.0 ± 0.01 | 0.055 ± 0.001 | – |
| Fc1ncc(C2CC3CCC2N3)cc1I (centres unmarked) [compound 39] | – | 0.076 ± 0.004 | Hill Slope [1]: 1.0 ± 0.05 |
| Ic1cncc(C2CC3CCC2N3)c1 (centres unmarked) [compound 41] | 0.9 ± 0.02 | – | Ki [1, 3]: 0.059 ± 0.001 nM |
| Nc1ncc(C2CC3CCC2N3)cc1-c1cccc([N+](=O)[O-])c1 (centres unmarked) [compound 42] | – | 0.047 ± 0.002 | Hill Slope [1]: 1.1 ± 0.09 |
| COc1cccc(-c2cc(C3CC4CCC3N4)cnc2Cl)c1 (centres unmarked) [compound 45] | 0.8 ± 0.02 | 0.019 ± 0.005 | – |
| COc1cccc(-c2cncc(C3CC4CCC3N4)c2)c1 (centres unmarked) [compound 46] | 0.9 ± 0.03 | – | Ki [1, 3]: 0.43 ± 0.05 nM |
| Fc1ncc(C2CC3CCC2N3)cc1-c1ccccc1 (centres unmarked) [compound 47] | 1.1 ± 0.04 | 0.14 ± 0.07 | – |
| OC1C2CCC1C(c1ccc(Cl)nc1)C2 (centres unmarked) [compound 50] | – | > 1000 | – |
| Nc1ccc(C2CC3CCC2C3)cn1 (centres unmarked) [compound 54] | – | 2200 | Hill Slope [1]: 1.1 |
